# Measured values from ChEMBL document CHEMBL2057197, “Synthesis and evaluation of water-soluble resveratrol and piceatannol via BGLation” (Bioorg Med Chem Lett, 2012).
# Active and inactive are the calls of the source. No cut-off for these calls is given here.
# Key:
# 3T3-L1 [1] = assay: Reduction in triglyceride level in mouse 3T3L1 cells at 10 to 50 uM after 48 hrs; format: functional, cell-based
# 3T3-L1 [2] = assay: Induction of mitochondrial fusion in mouse 3T3L1 cells at 10 to 50 uM after 48 hrs by green Fm-staining; format: functional, cell-based
SMILES,Activity (3T3-L1 [1]),Activity (3T3-L1 [2])
OCC(CO)OCC(COC(CO)CO)n1cc(COc2cc(O)cc(/C=C/c3ccc(O)c(O)c3)c2)nn1,Active,Active
OCC(CO)OCC(COC(CO)CO)n1cc(COc2cc(O)cc(/C=C/c3ccc4c(c3)OCO4)c2)nn1,inactive,Active
OCC(CO)OCC(COC(CO)CO)n1cc(COc2cc(O)cc(/C=C/c3ccc(O)cc3)c2)nn1,inactive,inactive
Oc1cc(O)cc(/C=C/c2ccc(O)c(O)c2)c1,Active,Active
COc1ccc(/C=C/c2cc(O)cc(OCc3cn(C(COC(CO)CO)COC(CO)CO)nn3)c2)cc1,inactive,inactive
